# Test results as given in PMC12314110, “Evaluation of Potential Effects of CYP3A Inhibition and CYP3A Induction on the Pharmacokinetics of Fruquintinib in Healthy Subjects” (Clinical Pharmacology in Drug Development, 2025).
# Assays:
# [1] = Safety assessments (adverse events) in healthy subjects; type: in vivo, human; conditions: Part B, after rifampin alone (Treatment Period 2); back pain, 1/14 subjects, mild (Grade 1), unrelated to study treatment
# Method: Safety was assessed by evaluation of adverse events (AEs), serious AEs, AEs of special interest, physical examinations, vital signs, single 12‐lead electrocardiograms and cardiac monitoring, and clinical laboratory data. All AEs were coded using the Medical Dictionary for Regulatory Activities Version 23.0, and their severity was graded using the National Cancer Institute Common Terminology Criteria for Adverse Events Version 5.0.
# [2] = design: method as in PMID 9925057; conditions: cited from earlier work
structure (smiles),measurement,setting,value
"CO[C@H]1/C=C/O[C@@]2(C)Oc3c(C)c(O)c4c(O)c(c(/C=N/N5CCN(C)CC5)c(O)c4c3C2=O)NC(=O)/C(C)=C\C=C\[C@H](C)[C@H](O)[C@@H](C)[C@@H](O)[C@@H](C)[C@H](OC(C)=O)[C@@H]1C [rifampin, reference compound]",treatment‐emergent AE incidence,[1],7.1%
same,reduction of absorption when ingested with food,[2],approximately 30%
